# Data from US12453725B2, “Treatment of inflammatory disease” (Celleron Therapeutics Limited, priority 2019, dated 2025).
# Tests used:
# SW620 cells = assay: RNA-seq, SW620 cells; assay type: cell-based, human
# Protocol: SW620 cells were seeded into 6-well plates and left to adhere overnight. Cells were treated with 1 μM, 10 μM of CXD101 for 48 h. CT26 cells were seeded onto 100 mm plates and treated with 2.7 μM and 10 μM CXD101 for 72 h. After treatment cells were harvested and total RNA extracted by means of Promega ReliaPrep™ RNA Cell Miniprep System (Promega, USA). RNA was dissolved in RNAse free water and stored in −80° C. for future analysis. RNA concentration was measured by NanoDrop 2000 (Thermo Fisher Scientific, USA). Samples were qualified for library preparation if […]. Library preparation with poly (A) enrichment was performed by BGI.
# FASTQ files for CXD101 and DMSO treated samples in three biological replicates were trimmed to remove adapters and low-quality bases with TrimGalore v.0.4.3 (http://www.bioinformatics.babraham.ac.uk/projects/trim_galore/). The trimmed reads were aligned to the human reference genome (build hg19) with STAR aligner v.2.7 with two mismatches allowed. Differential gene expression analysis was done with the Bioconductor framework (v.3.8) and DESeq2 R package v.1.22, using read count data provided by the aligner. Genes were considered differentially expressed if the adjusted P, calculated using the Benjamini-Hochberg method in order to minimise the false discovery rate, was less than 0.01 (1%) and the change in expression level was greater than ˜2-fold as compared to DMSO control (e.g. |log_2(expression fold change)|>1).
# H3 acetylation = assay: H3 acetylation, colon26 cells; assay type: cell-based, mouse; details: colon26, dose-dependent
# Protocol: Cell pellets were lysed in TNN buffer, for 30 minutes on ice and centrifuged for another 30 minutes at maximum speed at 4° C. Protein concentration was assessed by Bradford assay (Quick Start™ Bradford 1× Dye Reagent, Bio-Rad Laboratories, USA). After gel electrophoresis, proteins were transferred onto the PVDF membrane by means of Trans-Blot® Turbo™ Transfer System (Bio-Rad Laboratories, USA) and blocked by 1 h incubation in 5% skim milk (Merck Group, Germany) in PBST at RT. To confirm acetylation induced by CXD101, membranes were incubated with anti-H3 (ab1791, abcam) antibody, anti-H3Ack9 (ab10812, abcam) in case of CT26 cells, and for SW620 with H3Ack14 antibody (#7627, Cell Signaling) overnight, at 4° C. Next, membranes were washed and treated with secondary antibody for 1 h at RT. Chemiluminescent signals were detected by LICOR C-Digit (LI-COR Biosciences, USA), and the data quantified using ImageJ software (National Institutes of Health, USA).
# [1] = Phase Ib/II clinical trial CTL-101-023, CXD101 with nivolumab, safety; assay type: in vivo, human; details: study CTL-101-023
# Protocol: A clinical trial was conducted involving 55 subjects. The clinical trial protocol is summarized below: • Protocol Number: CTL-101-023 • Investigational Product: CXD101 and nivolumab Active Ingredient(s)/INN: • CXD101 or N-(2-aminophenyl)-4-(1-[(1,3-dimethyl-1H-pyrazol-4yl) methyl]piperidin-4-yl)benzamide is a Class I-selective histone deacetylase (HDAC) inhibitor. • Nivolumab is a programmed death receptor-1 (PD-1)-blocking antibody. […] 2. […] Subjects may continue to receive CXD101/nivolumab until complete response, disease progression, unacceptable toxicity, withdrawal of consent, or other medical problems supervene. • Efficacy will be measured using Immune Response Evaluation Criteria in Solid Tumours (iRECIST) Imaging studies, typically CT scan of chest, abdomen & pelvis, supplemented by MRI of liver when required, will be performed at Baseline and after every 6 weeks, with objective confirmation of response 6 weeks (+/−1 week) after observation. • Safety parameters will be assessed as in the Phase I study. […]
# colon26 cells = assay: qPCR of single genes, colon26 cells; assay type: cell-based, mouse
# Protocol: Total RNA purified from DMSO- or CXD101 treated cells was transcribed into cDNA according to the manufacturer's instructions (iScript cDNA Synthesis Kit, Bio-Rad, USA). qPCR was conducted according to the manufacturer's protocol (SsoAdvanced Universal SYBR Green Supermix, Bio-Rad Laboratories, USA) on CFX Connect Real-Time System thermocycler (Bio-Rad Laboratories, USA).
compound,measurement,setting,value
"Cc1nn(C)cc1CN1CCC(c2ccc(C(=O)Nc3ccccc3N)cc2)CC1 [CXD101, N-(2-aminophenyl)-4-(1-[(1,3-dimethyl-1H-pyrazol-4-yl)methyl]piperidin-4-yl)benzamide]",share of DEGs down-regulated,SW620 cells; SW620,30%
same,share of DEGs up-regulated,SW620 cells; SW620,70%
same,number of differentially expressed transcripts,SW620 cells; log 2 FC >1 and FDR <1%,about 2500
same,H3 acetylation in cells,H3 acetylation,increases the H3 acetylation
same,neutropenia due to myelosuppression,[1],varying degrees of neutropenia
same,"expression of Ctla4, H2-D1, Tnfsrf8",colon26 cells,no effects
same,"expression of H2-DMb1, H2-Eb1, H2-Dma, Ereg, Timp3, Ccl9, Cc20, II33, Rab3b",colon26 cells,increased expression
same,expression of H2-T3,colon26 cells,decreased
